Results from patent US6846802B2, “Macrocyclic NS3-serine protease inhibitors of hepatitis C virus comprising N-cyclic P2 moieties” (priority 2000, dated 2005).
Starred links: 1 amine or outer side, 2 acyl side, 3 side chain; linkers in the order of their positions; H or OH if unused. Positions of bridges follow the written chain, without caps; N, C: chain ends. Non-standard residues stand in square brackets, D forms with d. Residues, ends and D or L forms follow the SMILES beside them. Tic(7-O(CH2)6CO) = O=C([C@@H]1Cc2ccc(OCCCCCCC(=O)[*:3])cc2CN1[*:1])[*:2]; X1 = CCC[C@H](N[*:1])C(=O)C(=O)[*:2]; Chg = N[C@H](C(=O)O)C1CCCCC1; Phg = N[C@H](C(=O)O)c1ccccc1

What follows are compounds tested against HCV serine protease (subtype 1b, 1bNS4A21-32GS-GS NS3-81 I17K) in HeLa/Huh7 cells (Hepatitis C virus genotype 1b, UniProt P26663, I1043K).
Assay type: cell-based
In the case of `CCC[C@H](NC(=O)[C@@H]1C[C@@H]2CN1C(=O)[C@H](C1CCCCC1)NC(=O)Cc1cccc(c1)OCCCCO2)C(=O)C(=O)NCC(=O)N[C@H](C(=O)N(C)C)c1ccccc1` [Compound 4B], the “Cell-Based Assay” value is reported as 1.8 µM. For `CCCC(NC(=O)[C@@H]1C[C@@H]2CN1C(=O)[C@H](C1CCCCC1)NC(=O)CCc1cccc(c1)OCCO2)C(=O)C(=O)NCC(=O)N[C@H](C(=O)OC(C)(C)C)c1ccccc1` (stereo partly shown) [Compound 21], the “Cell-Based Assay” value was 2 µM. `CCCC(NC(=O)[C@@H]1C[C@@H]2CN1C(=O)[C@H](C1CCCCC1)NC(=O)Cc1cccc(c1)OCCCCO2)C(=O)C(=O)NCC(=O)N[C@H](C(=O)OC(C)(C)C)c1ccccc1` (mixture of isomers) [Compound 5] was tested, and the “Cell-Based Assay” value was 0.6 µM. In the case of `CCCC(NC(=O)[C@@H]1C[C@@H]2CN1C(=O)[C@H](C1CCCCC1)NC(=O)Cc1cccc(c1)OCCO2)C(=O)C(=O)NCC(=O)N[C@H](C(=O)OC(C)(C)C)c1ccccc1` (mixture of isomers) [Compound 8], the “Cell-Based Assay” value is reported as 3.5 µM. With `CCC[C@H](NC(=O)[C@@H]1C[C@@H]2CN1C(=O)[C@H](C(C)(C)C)NC(=O)Cc1cccc(c1)OCCCO2)C(=O)C(=O)NCC(=O)N[C@H](C(=O)N(C)C)c1ccccc1` [Compound 12B] the “Cell-Based Assay” value was 5.2 µM. For `CCC[C@H](NC(=O)[C@@H]1Cc2ccc3cc2CN1C(=O)[C@H](C1CCCCC1)NC(=O)CCCCCCO3)C(=O)C(=O)NCC(=O)N[C@H](C(=O)N(C)C)c1ccccc1` [Compound 57B] ([Chg][Tic(7-O(CH2)6CO)][X1]G[Phg]-NMe2; lactam N-2), the “Cell-Based Assay” value was 1.5 µM. For `CCCC(NC(=O)[C@@H]1C[C@@H]2CN1C(=O)[C@H](C1CCCCC1)NC(=O)Cc1cccc(c1)OCCCO2)C(=O)C(=O)NCC(=O)N[C@H](C(=O)OC(C)(C)C)c1ccccc1` (stereo partly shown) [Compound 2], the “Cell-Based Assay” value was 2 µM. `CCCC(NC(=O)[C@@H]1Cc2ccc3cc2CN1C(=O)[C@H](C1CCCCC1)NC(=O)CCCCCCO3)C(=O)C(=O)NCC(=O)N[C@H](C(=O)OC(C)(C)C)c1ccccc1` (mixture of isomers) [Compound 58] was tested, and the “Cell-Based Assay” value was 2 µM. For `CCC[C@@H](NC(=O)[C@@H]1C[C@@H]2CN1C(=O)[C@H](C1CCCCC1)NC(=O)Cc1cccc(c1)OCCCCO2)C(=O)C(=O)NCC(=O)N[C@H](C(=O)N(C)C)c1ccccc1` [Compound 4A], the “Cell-Based Assay” value was 2.5 µM. In the case of `CCCC(NC(=O)[C@@H]1C[C@@H]2CN1C(=O)[C@H](C1CCCCC1)NC(=O)Cc1cccc(c1)OCCCO2)C(=O)C(=O)NCC(=O)OCc1ccccc1` (stereo partly shown) [Compound 23], the “Cell-Based Assay” value is reported as 3 µM.
